According to US3957999A, “Anilinobenzothiazoles as antidepressants” (The Boots Company, priority 1974, dated 1976):

Columns and labels:
Assay type in all cases: in vivo
rabbits = assay: teratogenicity in rabbits; details: similar dosage levels
rats = assay: teratogenicity in rats; details: similar dosage levels
[1] = system: reserpine-induced hypothermia; assay: reversal of reserpine-induced hypothermia test in mice (antireserpine activity); details: Mus musculus, Shadbolt et al., read-out: ED50 (median effective dose)
Method: A test to evaluate this property was carried out with the compounds of formula I (R = H or CH3 O). The test was carried out in mice as described by Shadbolt et al. in J. Med. Chem. vol. 14 p.837 (1971), and the following results were obtained.

cats = assay: amphetamine-like stereotyped reactions in cats (amphetamine-like CNS stimulant activity); details: for amphetamine-like stereotyped reactions: cats, comparative tests at similar dosage levels

Structure (SMILES) | teratogenicity (rabbits) | teratogenicity (rats) | ED50 [1] [mg/kg] | amphetamine-like stereotyped reactions (cats) | amphetamine-like CNS stimulant activity (cats; as shown by stereotyped reactions in cats)
COc1ccc2sc(Nc3ccc(OCCN4CCCC4)cc3)nc2c1 [compound I, R=methoxy, 5-methoxy-2-[4-(2-pyrrolidin-1-ylethoxy)anilino]benzothiazole] | no evidence of teratogenicity | no evidence of teratogenicity | 3.1 |  | 
c1ccc2oc(Nc3ccc(OCCN4CCCC4)cc3)nc2c1 [2-[4-(2-pyrrolidin-1-ylethoxy)anilino]benzoxazole] | markedly teratogenic | markedly teratogenic |  |  | 
c1ccc2sc(Nc3ccc(OCCN4CCCCC4)cc3)nc2c1 [2-[4-(2-piperidin-1-ylethoxy)anilino]benzothiazole] |  |  |  | causes amphetamine-like stereotyped reactions | 
c1ccc2sc(Nc3ccc(OCCN4CCCC4)cc3)nc2c1 [compound I, R=hydrogen, 2-[4-(2-pyrrolidin-1-ylethoxy)anilino]benzothiazole] |  | no evidence of teratogenicity | 3.7 |  | 
CCN(CC)CCOc1ccc(Nc2nc3ccccc3s2)cc1 [2-[4-(2-diethylaminoethoxy)anilino]benzothiazole] |  |  |  | produces amphetaminelike stereotyped reactions | undesirably high level of amphetamine-like CNS stimulant activity
